# Data reported in patent publication US10670605B2, “Cysteine reactive probes and uses thereof” (The Scripps Research Institute, priority 2015, dated 2020).
# Tests used:
# Assay in all cases: Competitive isoTOP-ABPP, cell lysates
# Type in all cases: binding
# IRF4 C194 (Q15306) = biological target: T1, IRF4 C194 (Q15306) (Homo sapiens, UniProt Q15306); conditions: for isoTOP-ABPP ratio (reactivity profile), Q15306_C194: 500 μm in-vitro ramos; for isoTOP-ABPP reactivity profile ratio, Q15306_C194: 500 μm, in-vitro_ramos
# T1 sequence (Q15306 1-451): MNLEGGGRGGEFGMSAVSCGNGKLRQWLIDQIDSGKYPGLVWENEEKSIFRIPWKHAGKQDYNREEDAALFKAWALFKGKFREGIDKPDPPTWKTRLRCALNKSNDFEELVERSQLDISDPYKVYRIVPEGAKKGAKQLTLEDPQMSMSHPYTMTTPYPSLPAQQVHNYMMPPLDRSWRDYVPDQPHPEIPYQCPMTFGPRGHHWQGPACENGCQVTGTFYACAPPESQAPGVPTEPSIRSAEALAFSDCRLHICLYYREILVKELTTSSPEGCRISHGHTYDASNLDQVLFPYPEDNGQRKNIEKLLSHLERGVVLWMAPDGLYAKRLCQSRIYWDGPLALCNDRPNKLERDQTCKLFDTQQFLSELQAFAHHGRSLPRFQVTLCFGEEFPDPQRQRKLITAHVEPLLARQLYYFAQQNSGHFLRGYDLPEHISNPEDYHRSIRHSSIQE
# CASP8 C360 (Q14790) = CASP8 C360 (Q14790) (Homo sapiens, UniProt Q14790); conditions: for R value (DMSO/fragment): 500 μM
# SMARCC2 C145 (Q8TAQ2) = SMARCC2 C145 (Q8TAQ2) (Homo sapiens, UniProt Q8TAQ2); conditions: for isoTOP-ABPP reactivity profile ratio, Q8TAQ2_C145: 500 μm; for R value (DMSO/fragment): 500 μM
# ACAT1 C196 (P24752) = biological target: T2, ACAT1 C196 (P24752) (Homo sapiens, UniProt P24752); conditions: for isoTOP-ABPP ratio, P24752_C196 / R value (DMSO/fragment): 500 μM; for isoTOP-ABPP ratio, P24752_C196: 231; for isoTOP-ABPP reactivity profile ratio, P24752_C196 / isoTOP-ABPP reactivity ratio, P24752_C196: 500 μm
# T2 sequence (P24752 34-427): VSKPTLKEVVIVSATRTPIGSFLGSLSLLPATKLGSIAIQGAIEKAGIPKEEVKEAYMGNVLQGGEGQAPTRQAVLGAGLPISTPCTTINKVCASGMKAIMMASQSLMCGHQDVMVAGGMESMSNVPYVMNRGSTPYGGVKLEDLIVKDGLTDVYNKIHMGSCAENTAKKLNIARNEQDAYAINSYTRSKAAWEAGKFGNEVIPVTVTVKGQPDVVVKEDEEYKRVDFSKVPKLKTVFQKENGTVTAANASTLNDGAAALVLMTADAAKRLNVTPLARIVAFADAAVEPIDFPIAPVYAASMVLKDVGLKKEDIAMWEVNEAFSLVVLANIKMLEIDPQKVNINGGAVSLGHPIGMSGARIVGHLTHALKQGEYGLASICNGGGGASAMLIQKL
# ACAT1 C119 (P24752) = biological target: T3, ACAT1 C119 (P24752) (Homo sapiens, UniProt P24752); conditions: for isoTOP-ABPP ratio P24752_C119 / R value (DMSO/fragment): 500 μM; for isoTOP-ABPP ratio P24752_C119: 231
# T3 sequence (P24752 34-427): T2 sequence (P24752 34-427)
# ACAT1 C126 (P24752) = biological target: T4, ACAT1 C126 (P24752) (Homo sapiens, UniProt P24752); conditions: for isoTOP-ABPP ratio, P24752_C126 / R value (DMSO/fragment): 500 μM; for isoTOP-ABPP ratio, P24752_C126: 231; for isoTOP-ABPP reactivity profile ratio, P24752_C126: in-vitro_ramos_231
# T4 sequence (P24752 34-427): T2 sequence (P24752 34-427)
# ACAT1 C413 (P24752) = biological target: T5, ACAT1 C413 (P24752) (Homo sapiens, UniProt P24752); conditions: for isoTOP-ABPP ratio P24752_C413 / R value (DMSO/fragment): 500 μM; for isoTOP-ABPP ratio P24752_C413: 231; for isoTOP-ABPP reactivity profile ratio, P24752_C413 / isoTOP-ABPP reactivity ratio, P24752_C413: 500 μm
# T5 sequence (P24752 34-427): T2 sequence (P24752 34-427)
# Sequence of CASP8 C360 (Q14790) (Q14790 whole entry, the tested form may be a part): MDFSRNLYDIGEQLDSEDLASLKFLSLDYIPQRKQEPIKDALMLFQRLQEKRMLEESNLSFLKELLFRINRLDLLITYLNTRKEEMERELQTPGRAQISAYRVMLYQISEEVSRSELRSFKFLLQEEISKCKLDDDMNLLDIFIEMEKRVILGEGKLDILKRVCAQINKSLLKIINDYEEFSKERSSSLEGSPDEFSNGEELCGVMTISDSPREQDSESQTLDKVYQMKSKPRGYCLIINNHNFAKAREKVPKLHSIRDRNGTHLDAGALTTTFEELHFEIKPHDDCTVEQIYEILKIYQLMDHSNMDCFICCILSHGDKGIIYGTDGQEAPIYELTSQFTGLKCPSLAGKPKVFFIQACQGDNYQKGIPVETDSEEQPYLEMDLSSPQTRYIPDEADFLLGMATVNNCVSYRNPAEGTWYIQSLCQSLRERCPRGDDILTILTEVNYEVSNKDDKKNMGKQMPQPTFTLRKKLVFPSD
# Sequence of SMARCC2 C145 (Q8TAQ2) (Q8TAQ2 whole entry, the tested form may be a part): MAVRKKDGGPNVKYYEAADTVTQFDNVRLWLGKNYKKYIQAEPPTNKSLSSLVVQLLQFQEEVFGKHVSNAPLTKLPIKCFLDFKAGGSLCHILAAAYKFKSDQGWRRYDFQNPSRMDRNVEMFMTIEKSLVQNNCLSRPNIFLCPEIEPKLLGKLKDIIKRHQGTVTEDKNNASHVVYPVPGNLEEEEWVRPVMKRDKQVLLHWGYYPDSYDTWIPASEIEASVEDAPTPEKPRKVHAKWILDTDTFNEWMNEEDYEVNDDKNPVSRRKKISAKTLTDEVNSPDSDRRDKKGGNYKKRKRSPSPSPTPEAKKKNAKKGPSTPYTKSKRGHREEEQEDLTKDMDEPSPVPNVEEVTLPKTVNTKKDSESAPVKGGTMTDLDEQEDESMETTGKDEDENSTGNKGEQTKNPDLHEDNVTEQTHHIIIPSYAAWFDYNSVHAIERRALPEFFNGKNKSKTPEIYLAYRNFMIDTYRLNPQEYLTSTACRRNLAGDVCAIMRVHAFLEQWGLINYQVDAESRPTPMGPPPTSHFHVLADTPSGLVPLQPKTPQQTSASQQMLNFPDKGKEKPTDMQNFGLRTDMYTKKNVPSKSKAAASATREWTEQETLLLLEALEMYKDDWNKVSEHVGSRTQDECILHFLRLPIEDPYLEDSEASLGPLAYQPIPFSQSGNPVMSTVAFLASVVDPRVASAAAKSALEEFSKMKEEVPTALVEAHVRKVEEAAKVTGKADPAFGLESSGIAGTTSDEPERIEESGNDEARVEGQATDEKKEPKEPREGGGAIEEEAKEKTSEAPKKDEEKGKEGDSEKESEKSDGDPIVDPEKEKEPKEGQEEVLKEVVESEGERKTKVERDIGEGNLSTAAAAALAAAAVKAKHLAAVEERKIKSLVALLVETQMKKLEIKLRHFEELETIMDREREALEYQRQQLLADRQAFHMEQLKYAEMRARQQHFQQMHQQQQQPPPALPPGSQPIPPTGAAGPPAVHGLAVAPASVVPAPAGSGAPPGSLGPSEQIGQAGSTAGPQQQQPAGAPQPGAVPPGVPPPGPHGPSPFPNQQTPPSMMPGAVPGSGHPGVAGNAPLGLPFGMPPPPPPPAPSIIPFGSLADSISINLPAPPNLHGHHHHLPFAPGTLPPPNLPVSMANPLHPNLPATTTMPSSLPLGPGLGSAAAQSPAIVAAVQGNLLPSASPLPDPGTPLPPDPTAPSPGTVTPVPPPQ
smiles,measurement,setting,value
O=C(CCl)NC12CC3CC(CC(C3)C1)C2 [compound 21],"isoTOP-ABPP ratio (reactivity profile), Q15306_C194",IRF4 C194 (Q15306),1.7
same,"isoTOP-ABPP ratio (reactivity profile), Q14790_C360",CASP8 C360 (Q14790); 500 μm in-vitro ramos,1.9
same,"isoTOP-ABPP ratio (reactivity profile), Q14790_C360",CASP8 C360 (Q14790); 500 μm in-vitro ramos_231,1.9
same,"isoTOP-ABPP ratio (reactivity profile), Q8TAQ2_C145",SMARCC2 C145 (Q8TAQ2); 500 μm in-vitro ramos_231,1.2
same,"isoTOP-ABPP ratio (reactivity profile), P24752_C196",ACAT1 C196 (P24752); 500 μm in-vitro ramos,1.1
same,"isoTOP-ABPP ratio (reactivity profile), P24752_C196",ACAT1 C196 (P24752); 500 μm in-vitro ramos_231,1.0
same,"isoTOP-ABPP ratio (reactivity profile), P24752_C119",ACAT1 C119 (P24752); 500 μm in-vitro ramos,1.1
same,"isoTOP-ABPP ratio (reactivity profile), P24752_C119",ACAT1 C119 (P24752); 500 μm in-vitro ramos_231,0.9
same,"isoTOP-ABPP ratio (reactivity profile), P24752_C126",ACAT1 C126 (P24752); 500 μm in-vitro ramos,1.4
same,"isoTOP-ABPP ratio (reactivity profile), P24752_C126",ACAT1 C126 (P24752); 500 μm in-vitro ramos_231,1.2
same,"isoTOP-ABPP ratio (reactivity profile), P24752_C413",ACAT1 C413 (P24752); 500 μm in-vitro ramos,1.4
same,"isoTOP-ABPP ratio (reactivity profile), P24752_C413",ACAT1 C413 (P24752); 500 μm in-vitro ramos_231,1.4
CNS(=O)(=O)C=Cc1ccc2c(ccn2Cc2ccccc2)c1 [compound 6],"isoTOP-ABPP ratio, P24752_C196",ACAT1 C196 (P24752); invitro,1.0
same,isoTOP-ABPP ratio P24752_C119,ACAT1 C119 (P24752); invitro,1.1
same,"isoTOP-ABPP ratio, P24752_C126",ACAT1 C126 (P24752); invitro,0.9
same,isoTOP-ABPP ratio P24752_C413,ACAT1 C413 (P24752); invitro,1.1
C=CC(=O)N1CCC(Cc2ccccc2)CC1 [compound 53],"isoTOP-ABPP reactivity profile ratio, Q15306_C194",IRF4 C194 (Q15306),1.0
same,"isoTOP-ABPP reactivity profile ratio, Q8TAQ2_C145",SMARCC2 C145 (Q8TAQ2); in-vitro_ramos,1.2
same,"isoTOP-ABPP reactivity profile ratio, P24752_C196",ACAT1 C196 (P24752); in-vitro_ramos,0.9
same,"isoTOP-ABPP reactivity profile ratio, P24752_C196",ACAT1 C196 (P24752); in-vitro_ramos_231,1.2
same,"isoTOP-ABPP reactivity profile ratio, P24752_C119","ACAT1 C119 (P24752); 500 μm, in-vitro_ramos",0.7
same,"isoTOP-ABPP reactivity profile ratio, P24752_C119","ACAT1 C119 (P24752); 500 μm, in-vitro_ramos_231",0.9
same,"isoTOP-ABPP reactivity profile ratio, P24752_C413",ACAT1 C413 (P24752); in-vitro_ramos_231,1.0
O=C(CCl)N(Cc1ccc(F)cc1)C12CC3CC(CC(C3)C1)C2 [compound 34],"isoTOP-ABPP reactivity ratio, P24752_C196",ACAT1 C196 (P24752); in-vitro_ramos,1.0
same,"isoTOP-ABPP reactivity ratio, P24752_C196",ACAT1 C196 (P24752); in-vitro_ramos_231,0.8
same,"isoTOP-ABPP reactivity ratio, P24752_C119","ACAT1 C119 (P24752); 500 μm, in-vitro_ramos_231",0.8
same,"isoTOP-ABPP reactivity ratio, P24752_C126","ACAT1 C126 (P24752); 500 μm, in-vitro_ramos",1.1
same,"isoTOP-ABPP reactivity ratio, P24752_C413",ACAT1 C413 (P24752); in-vitro_ramos,1.3
same,"isoTOP-ABPP reactivity ratio, P24752_C413",ACAT1 C413 (P24752); in-vitro_ramos_231,0.9
C=CC(=O)N(Cc1cccnc1)c1ccc(Oc2ccccc2)c(C(F)(F)F)c1 [compound 15],"isoTOP-ABPP ratio (reactivity profile), Q15306_C194",IRF4 C194 (Q15306),2.2
same,"isoTOP-ABPP ratio (reactivity profile), Q8TAQ2_C145",SMARCC2 C145 (Q8TAQ2); 500 μm in-vitro ramos,1.2
same,"isoTOP-ABPP ratio, P24752_C196",ACAT1 C196 (P24752); invitro,0.9
same,"isoTOP-ABPP ratio (reactivity profile), P24752_C196",ACAT1 C196 (P24752); 500 μm in-vitro ramos,1.6
same,isoTOP-ABPP ratio P24752_C119,ACAT1 C119 (P24752); invitro,1.0
same,"isoTOP-ABPP ratio (reactivity profile), P24752_C119",ACAT1 C119 (P24752); 500 μm in-vitro ramos,1.2
same,"isoTOP-ABPP ratio, P24752_C126",ACAT1 C126 (P24752); invitro,0.8
same,isoTOP-ABPP ratio P24752_C413,ACAT1 C413 (P24752); invitro,1.2
same,"isoTOP-ABPP ratio (reactivity profile), P24752_C413",ACAT1 C413 (P24752); 500 μm in-vitro ramos,0.9
O=C(CCl)Nc1cc(C(F)(F)F)cc(C(F)(F)F)c1 [compound 3],R value (DMSO/fragment),"IRF4 C194 (Q15306); 500 μM, invitro, ramos",20.0
same,R value (DMSO/fragment),"CASP8 C360 (Q14790); in vitro, MDA-MB-231",3.3
same,R value (DMSO/fragment),"CASP8 C360 (Q14790); invitro, ramos",2.3
same,R value (DMSO/fragment),"SMARCC2 C145 (Q8TAQ2); in vitro, MDA-MB-231",9.7
same,R value (DMSO/fragment),"SMARCC2 C145 (Q8TAQ2); invitro, ramos",6.6
same,R value (DMSO/fragment),"ACAT1 C196 (P24752); in vitro, MDA-MB-231",1.7
same,R value (DMSO/fragment),"ACAT1 C196 (P24752); invitro, ramos",3.1
same,R value (DMSO/fragment),"ACAT1 C119 (P24752); in vitro, MDA-MB-231",2.1
same,R value (DMSO/fragment),"ACAT1 C119 (P24752); invitro, ramos",5.3
same,R value (DMSO/fragment),"ACAT1 C126 (P24752); in vitro, MDA-MB-231",2.6
same,R value (DMSO/fragment),"ACAT1 C126 (P24752); invitro, ramos",2.4
same,R value (DMSO/fragment),"ACAT1 C413 (P24752); in vitro, MDA-MB-231",15.3
same,R value (DMSO/fragment),"ACAT1 C413 (P24752); invitro, ramos",20.0
O=C(CCl)Nc1ccc(-c2ccccc2)cc1 [compound 52],"isoTOP-ABPP reactivity profile ratio, Q15306_C194",IRF4 C194 (Q15306),1.4
same,"isoTOP-ABPP reactivity profile ratio, Q8TAQ2_C145",SMARCC2 C145 (Q8TAQ2); in-vitro_ramos,1.8
same,"isoTOP-ABPP reactivity profile ratio, Q8TAQ2_C145",SMARCC2 C145 (Q8TAQ2); in-vitro_ramos_231,0.9
same,"isoTOP-ABPP reactivity profile ratio, P24752_C196",ACAT1 C196 (P24752); in-vitro_ramos,1.5
same,"isoTOP-ABPP reactivity profile ratio, P24752_C196",ACAT1 C196 (P24752); in-vitro_ramos_231,1.3
same,"isoTOP-ABPP reactivity profile ratio, P24752_C119","ACAT1 C119 (P24752); 500 μm, in-vitro_ramos",0.8
same,"isoTOP-ABPP reactivity profile ratio, P24752_C119","ACAT1 C119 (P24752); 500 μm, in-vitro_ramos_231",1.4
same,"isoTOP-ABPP reactivity profile ratio, P24752_C126",ACAT1 C126 (P24752); 500 μm,1.3
same,"isoTOP-ABPP reactivity profile ratio, P24752_C413",ACAT1 C413 (P24752); in-vitro_ramos,1.5
same,"isoTOP-ABPP reactivity profile ratio, P24752_C413",ACAT1 C413 (P24752); in-vitro_ramos_231,1.9
C=CC(=O)N(c1ccccc1)C1CCCCC1 [compound 46],"isoTOP-ABPP reactivity profile ratio, Q8TAQ2_C145",SMARCC2 C145 (Q8TAQ2); in-vitro_ramos_231,1.0
same,"isoTOP-ABPP reactivity profile ratio, P24752_C196",ACAT1 C196 (P24752); in-vitro_ramos_231,0.9
same,"isoTOP-ABPP reactivity profile ratio, P24752_C119","ACAT1 C119 (P24752); 500 μm, in-vitro_ramos_231",0.8
same,"isoTOP-ABPP reactivity profile ratio, P24752_C126",ACAT1 C126 (P24752); 500 μm,0.9
same,"isoTOP-ABPP reactivity profile ratio, P24752_C413",ACAT1 C413 (P24752); in-vitro_ramos_231,1.1
